According to ChEMBL document CHEMBL1137916, “5-Amidinoindoles as dual inhibitors of coagulation factors IXa and Xa” (Bioorg Med Chem Lett, 2004):
pKi: −log10 of the molar value.

Key:
Coagulation factor X = Coagulation factor X (Homo sapiens, UniProt P00742); assay: Binding affinity towards human factor Xa
Coagulation factor IX = Coagulation factor IX (Homo sapiens, UniProt P00740); assay: Binding affinity towards human factor IXa
Sequence of Coagulation factor IX (P00740 47-191 limits assumed): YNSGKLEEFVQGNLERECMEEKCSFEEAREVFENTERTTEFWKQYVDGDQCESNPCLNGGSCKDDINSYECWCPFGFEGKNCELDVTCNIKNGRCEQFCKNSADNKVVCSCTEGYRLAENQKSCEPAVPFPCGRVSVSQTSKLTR
Sequence of Coagulation factor IX (P00740 227-461 limits assumed): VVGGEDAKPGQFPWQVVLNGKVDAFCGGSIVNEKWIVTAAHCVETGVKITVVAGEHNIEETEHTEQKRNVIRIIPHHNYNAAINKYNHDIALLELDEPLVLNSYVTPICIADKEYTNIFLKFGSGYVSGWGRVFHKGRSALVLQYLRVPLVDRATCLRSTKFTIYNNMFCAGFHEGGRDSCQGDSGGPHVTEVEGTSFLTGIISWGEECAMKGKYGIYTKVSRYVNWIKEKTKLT

Sequence of Coagulation factor X (P00742 41-179 limits assumed): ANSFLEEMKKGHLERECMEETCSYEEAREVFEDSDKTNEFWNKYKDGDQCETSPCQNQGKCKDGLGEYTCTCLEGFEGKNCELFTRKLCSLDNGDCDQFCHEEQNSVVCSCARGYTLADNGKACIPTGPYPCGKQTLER
Sequence of Coagulation factor X (P00742 235-488 limits assumed): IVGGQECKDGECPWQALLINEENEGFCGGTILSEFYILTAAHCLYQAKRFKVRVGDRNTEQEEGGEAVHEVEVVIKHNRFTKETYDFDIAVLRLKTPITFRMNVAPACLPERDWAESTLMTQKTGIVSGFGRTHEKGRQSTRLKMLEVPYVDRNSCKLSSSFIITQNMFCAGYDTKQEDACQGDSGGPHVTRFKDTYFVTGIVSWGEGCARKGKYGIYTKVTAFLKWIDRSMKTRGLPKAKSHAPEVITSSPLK

| Compound | pKi (Coagulation factor X) | pKi (Coagulation factor IX) |
| --- | --- | --- |
| N=C(N)c1ccc2[nH]cc(CC(=O)Nc3ccc(-c4ccccc4S(N)(=O)=O)cc3)c2c1 | 8.49 | 5.17 |
| N=C(N)c1ccc2[nH]cc(C(CC(=O)Nc3ccc(-n4cnc5ccccc54)cc3)Cc3ccccc3)c2c1 (stereo not given) | 7.44 | 6.60 |
| CC(C(=O)Nc1ccc(-n2cnc3ccccc32)cc1)c1c[nH]c2ccc(C(=N)N)cc12 (stereo not given) | 8.52 | 6.32 |
| N=C(N)c1ccc2[nH]cc(C(Cc3ccccc3)C(=O)Nc3ccc(-n4cnc(-c5ccccc5)c4)cc3)c2c1 (stereo not given) | 7.10 | 6.57 |
| N=C(N)c1ccc2[nH]cc(C(Cc3ccccc3)C(=O)NCc3ccc(C(=O)Nc4nc5ccccc5[nH]4)cc3)c2c1 (stereo not given) | 6.09 | 6.03 |
| N=C(N)c1ccc2[nH]cc(C(Cc3ccccc3)C(=O)Nc3ccc(-c4ccccc4S(N)(=O)=O)cc3)c2c1 (stereo not given) | 9.20 | 6.18 |
| N=C(N)c1ccc2[nH]cc(CC(Cc3ccccc3)C(=O)Nc3ccc(-n4cnc5ccccc54)cc3)c2c1 (stereo not given) | 7.35 | 6.89 |
| CS(=O)(=O)c1ccc2nc(NC(=O)c3ccc(CNC(=O)C(Cc4ccccc4)c4c[nH]c5ccc(C(=N)N)cc45)cc3)[nH]c2c1 (stereo not given) | 5.96 | 6.18 |
| N=C(N)c1ccc2[nH]cc(C(CC3CC3)C(=O)Nc3ccc(-n4cnc5ccccc54)cc3)c2c1 (stereo not given) | 7.85 | 5.42 |
| CC(C)(C(=O)Nc1ccc(-n2cnc3ccccc32)cc1)c1c[nH]c2ccc(C(=N)N)cc12 | 8.66 | 6.12 |
| N=C(N)c1ccc2[nH]cc(C(Cc3ccc(NS(=O)(=O)c4ccccc4)cc3)C(=O)Nc3ccc(-n4cnc5ccccc54)cc3)c2c1 (stereo not given) | 7.72 | 6.89 |
| N=C(N)c1ccc2[nH]cc(C(Cc3ccccc3)C(=O)NCc3cccc(C(=O)Nc4nc5ccccc5[nH]4)c3)c2c1 (stereo not given) | 5.59 | 5.72 |
| N=C(N)c1ccc2ccn(C(Cc3ccccc3)C(=O)Nc3ccc(-n4cnc5ccccc54)cc3F)c2c1 (stereo not given) | 8.25 | 6.52 |

The remaining lines, values ahead:

| pKi (Coagulation factor X) | pKi (Coagulation factor IX) | Compound |
| --- | --- | --- |
| 7.14 | 6.51 | N=C(N)c1ccc2[nH]cc(C(Cc3ccccc3)C(=O)NCc3ccc(-n4cnc5ccccc54)cc3)c2c1 (stereo not given) |
| 6.80 | 6.44 | Cn1cc(C(Cc2ccccc2)C(=O)Nc2ccc(-n3cnc4ccccc43)cc2F)c2cc(C(=N)N)ccc21 (stereo not given) |
| 8.21 | 6.62 | N=C(N)c1ccc2[nH]cc(C(CCc3ccccc3)C(=O)Nc3ccc(-n4cnc5ccccc54)cc3F)c2c1 (stereo not given) |
| 7.55 | 7.01 | N=C(N)c1ccc2[nH]cc(C(Cc3ccc4ccccc4c3)C(=O)Nc3ccc(-n4cnc5ccccc54)cc3F)c2c1 (stereo not given) |
| 8.40 | 7.12 | N=C(N)c1ccc2[nH]cc(C(Cc3ccc(N)cc3)C(=O)Nc3ccc(-n4cnc5ccccc54)cc3)c2c1 (stereo not given) |
| 7.59 | 6.09 | N=C(N)c1ccc2[nH]cc([C@H](Cc3ccccc3)C(=O)Nc3ccc(-n4cnc5ccccc54)cc3F)c2c1 |
| 8.89 | 7.72 | N=C(N)c1ccc2[nH]cc([C@@H](Cc3ccccc3)C(=O)Nc3ccc(-n4cnc5ccccc54)cc3F)c2c1 |
| 7.74 | 6.57 | N=C(N)c1ccc2[nH]cc(C(Cc3ccc(NC(=O)c4ccccc4)cc3)C(=O)Nc3ccc(-n4cnc5ccccc54)cc3)c2c1 (stereo not given) |
| 8.55 | 6.80 | CCC(C(=O)Nc1ccc(-n2cnc3ccccc32)cc1)c1c[nH]c2ccc(C(=N)N)cc12 (stereo not given) |
| 8.74 | 7.23 | N=C(N)c1ccc2[nH]cc(C(Cc3cccc(C(=O)O)c3)C(=O)Nc3ccc(-n4cnc5ccccc54)cc3F)c2c1 (stereo not given) |
| 8.15 | 5.92 | N=C(N)c1ccc2[nH]cc(C(Cc3cccnc3)C(=O)Nc3ccc(-n4cnc5ccccc54)cc3)c2c1 (stereo not given) |
| 8.60 | 7.20 | N=C(N)c1ccc2[nH]cc(C(Cc3ccccc3)C(=O)Nc3ccc(-n4cnc5ccccc54)cc3F)c2c1 (racemic) |
